Assay results: patent EP0584797A2, “Novel cephalosporin compounds and processes for the preparation thereof” (LUCKY LTD., priority 1992, dated 1994)
Values after ≈ are worked out from the molar mass of the structure shown.

Assays:
Assay in all cases: minimal inhibitory concentration, two-fold agar dilution
Assay type in all cases: cell-based
[1] = test system: Acinetobacter calcoaceticus ATCC 15437; conditions: ATCC15437, Muller-Hinton agar, 37°C, 20 hours, read-out: MIC values against the standard strains
In short: (§1)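 Compounds were serially diluted two-fold into Mueller-Hinton agar, and each plate was spot-inoculated with the test strain at 10⁷ CFU per ml. Plates were incubated at 37°C for 20 hours before MIC values were read.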

[2] = test system: Bacillus cereus ATCC 11778; conditions: ATCC11778, Muller-Hinton agar, 37°C, 20 hours, read-out: MIC values against the standard strains
In short: as §1

[3] = test system: Bacillus megaterium ATCC 9885; conditions: Priestia megaterium, ATCC9885; Muller-Hinton agar; 37°C; 20 hours; read-out: MIC values against the standard strains
In short: as §1

[4] = test system: Citrobacter freundii ATCC 8090; conditions: ATCC8090, Muller-Hinton agar, 37°C, 20 hours, read-out: MIC values against the standard strains
In short: as §1

[5] = test system: Enterobacter aerogenes ATCC 29751; conditions: Klebsiella aerogenes, ATCC29751; Muller-Hinton agar; 37°C; 20 hours; read-out: MIC values against the standard strains
In short: as §1

[6] = test system: Enterobacter cloacae ATCC 27508; conditions: ATCC27508, Muller-Hinton agar, 37°C, 20 hours, read-out: MIC values against the standard strains
In short: as §1

[7] = test system: Escherichia coli ATCC 10536; conditions: ATCC10536, Muller-Hinton agar, 37°C, 20 hours, read-out: MIC values against the standard strains
In short: as §1

[8] = test system: Escherichia coli ATCC 25922; conditions: ATCC25922, Muller-Hinton agar, 37°C, 20 hours, read-out: MIC values against the standard strains
In short: as §1

[9] = test system: Klebsiella pneumoniae ATCC 10031; conditions: ATCC10031, Muller-Hinton agar, 37°C, 20 hours, read-out: MIC values against the standard strains
In short: as §1

[10] = test system: Micrococcus luteus ATCC 9341; conditions: ATCC9341, Muller-Hinton agar, 37°C, 20 hours, read-out: MIC values against the standard strains
In short: as §1

[11] = test system: Morganella morganii ATCC 8076h; conditions: ATCC8076H, Muller-Hinton agar, 37°C, 20 hours, read-out: MIC values against the standard strains
In short: as §1

[12] = test system: Proteus mirabilis ATCC 25933; conditions: ATCC25933, Muller-Hinton agar, 37°C, 20 hours, read-out: MIC values against the standard strains
In short: as §1

[13] = test system: Proteus vulgaris ATCC 6059; conditions: ATCC6059, Muller-Hinton agar, 37°C, 20 hours, read-out: MIC values against the standard strains
In short: as §1

[14] = test system: Providencia rettgeri ATCC 9250; conditions: ATCC9250, Muller-Hinton agar, 37°C, 20 hours, read-out: MIC values against the standard strains
In short: as §1

[15] = test system: Pseudomonas aeruginosa ATCC 10145; conditions: ATCC10145, Muller-Hinton agar, 37°C, 20 hours, read-out: MIC values against the standard strains
In short: as §1

[16] = test system: Pseudomonas aeruginosa ATCC 25619; conditions: ATCC25619, Muller-Hinton agar, 37°C, 20 hours, read-out: MIC values against the standard strains
In short: as §1

[17] = test system: Pseudomonas aeruginosa ATCC 27853; conditions: ATCC27853, Muller-Hinton agar, 37°C, 20 hours, read-out: MIC values against the standard strains
In short: as §1

[18] = test system: Salmonella typhimurium ATCC 14028; conditions: Salmonella enterica; Muller-Hinton agar; 37°C; 20 hours; read-out: MIC values against the standard strains
In short: as §1

[19] = test system: Serratia marcescens ATCC 27117; conditions: ATCC27117, Muller-Hinton agar, 37°C, 20 hours, read-out: MIC values against the standard strains
In short: as §1

[20] = test system: Shigella flexneri ATCC 11836; conditions: ATCC11836, Muller-Hinton agar, 37°C, 20 hours, read-out: MIC values against the standard strains
In short: as §1

[21] = test system: Shigella sonnei ATCC 11060; conditions: ATCC11060, Muller-Hinton agar, 37°C, 20 hours, read-out: MIC values against the standard strains
In short: as §1

[22] = test system: Staphylococcus aureus ATCC 10537; conditions: ATCC10537, Muller-Hinton agar, 37°C, 20 hours, read-out: MIC values against the standard strains
In short: as §1

[23] = test system: Staphylococcus aureus ATCC 6538p; conditions: ATCC6538P, Muller-Hinton agar, 37°C, 20 hours, read-out: MIC values against the standard strains
In short: as §1

[24] = test system: Staphylococcus epidermidis ATCC 12228; conditions: ATCC12228, Muller-Hinton agar, 37°C, 20 hours, read-out: MIC values against the standard strains
In short: as §1

[25] = test system: Streptococcus faecalis ATCC 29212; conditions: Enterococcus faecalis, ATCC29212; Muller-Hinton agar; 37°C; 20 hours; read-out: MIC values against the standard strains
In short: as §1

Compound	MIC [1] [µg/mL]	MIC [2] [µg/mL]	MIC [3] [µg/mL]	MIC [4] [µg/mL]	MIC [5] [µg/mL]	MIC [6] [µg/mL]	MIC [7] [µg/mL]	MIC [8] [µg/mL]	MIC [9] [µg/mL]	MIC [10] [µg/mL]	MIC [11] [µg/mL]	MIC [12] [µg/mL]	MIC [13] [µg/mL]	MIC [14] [µg/mL]	MIC [15] [µg/mL]	MIC [16] [µg/mL]	MIC [17] [µg/mL]	MIC [18] [µg/mL]	MIC [19] [µg/mL]	MIC [20] [µg/mL]	other results
C[n+]1ccc(N)nc1SCC1=C(C(=O)[O-])N2C(=O)[C@@H](NC(=O)/C(=N\O)c3csc(N)n3)[C@H]2SC1 [Example 10, 7-[(Z)-2-(2-aminothiazol-4-yl)-2-oxyiminoacetamido]-3-(4-amino-1-methylpyrimidinium-2-yl)thiomethyl-3-cephem-4-carboxylate]	0.063 (≈ 0.121 µM)	32 (≈ 61.2 µM)	0.13 (≈ 0.249 µM)	0.063 (≈ 0.121 µM)	0.063 (≈ 0.121 µM)	0.016 (≈ 0.0306 µM)	0.25 (≈ 0.478 µM)	0.25 (≈ 0.478 µM)	0.25 (≈ 0.478 µM)	0.25 (≈ 0.478 µM)	0.016 (≈ 0.0306 µM)	0.25 (≈ 0.478 µM)	1 (≈ 1.91 µM)	≤ 0.008	> 128	128 (≈ 245 µM)	> 128	0.5 (≈ 0.957 µM)	0.5 (≈ 0.957 µM)	0.016 (≈ 0.0306 µM)	MIC [21]: 1 µg/mL (≈ 1.91 µM); MIC [22]: 0.25 µg/mL (≈ 0.478 µM); MIC [23]: 0.5 µg/mL (≈ 0.957 µM); MIC [24]: 0.063 µg/mL (≈ 0.121 µM); MIC [25]: 8 µg/mL (≈ 15.3 µM)
CCO/N=C(\C(=O)N[C@@H]1C(=O)N2C(C(=O)[O-])=C(CSc3nc(N)cc[n+]3CC)CS[C@H]12)c1csc(N)n1 [Example 14, 7-[(Z)-2-(2-aminothiazol-4-yl)-2-(ethoxyimino)acetamido]-3-(4-amino-1-ethylpyrimidinium-2-yl)thiomethyl-3-cephem-4-carboxylate]	16 (≈ 28.3 µM)	32 (≈ 56.7 µM)	0.25 (≈ 0.443 µM)	0.13 (≈ 0.23 µM)	1 (≈ 1.77 µM)	0.13 (≈ 0.23 µM)	0.13 (≈ 0.23 µM)	0.063 (≈ 0.112 µM)	0.13 (≈ 0.23 µM)	0.25 (≈ 0.443 µM)	0.13 (≈ 0.23 µM)	2 (≈ 3.54 µM)	2 (≈ 3.54 µM)	0.063 (≈ 0.112 µM)	64 (≈ 113 µM)	8 (≈ 14.2 µM)	32 (≈ 56.7 µM)	1 (≈ 1.77 µM)	1 (≈ 1.77 µM)	0.25 (≈ 0.443 µM)	MIC [21]: 0.25 µg/mL (≈ 0.443 µM); MIC [22]: 0.25 µg/mL (≈ 0.443 µM); MIC [23]: 0.5 µg/mL (≈ 0.885 µM); MIC [24]: 0.25 µg/mL (≈ 0.443 µM); MIC [25]: > 128 µg/mL
C[n+]1c(SCC2=C(C(=O)[O-])N3C(=O)[C@@H](NC(=O)/C(=N\O)c4csc(N)n4)[C@H]3SC2)nc(N)c(N)c1N [Example 9, 7-[(Z)-2-(2-aminothiazol-4-yl)-2-oxyiminoacetamido]-3-(4,5,6-triamino-1-methylpyrimidinium-2-yl)thiomethyl-3-cephem-4-carboxylate]	0.13 (≈ 0.235 µM)	16 (≈ 29 µM)	0.063 (≈ 0.114 µM)	0.016 (≈ 0.029 µM)	0.016 (≈ 0.029 µM)	≤ 0.008	0.031 (≈ 0.0561 µM)	0.031 (≈ 0.0561 µM)	0.031 (≈ 0.0561 µM)	0.031 (≈ 0.0561 µM)	≤ 0.008	0.031 (≈ 0.0561 µM)	0.063 (≈ 0.114 µM)	≤ 0.008	128 (≈ 232 µM)	64 (≈ 116 µM)	128 (≈ 232 µM)	0.25 (≈ 0.452 µM)	0.25 (≈ 0.452 µM)	0.063 (≈ 0.114 µM)	MIC [21]: 0.25 µg/mL (≈ 0.452 µM); MIC [22]: 0.13 µg/mL (≈ 0.235 µM); MIC [23]: 0.25 µg/mL (≈ 0.452 µM); MIC [24]: 0.063 µg/mL (≈ 0.114 µM); MIC [25]: 2 µg/mL (≈ 3.62 µM)
